Assay results published in patent publication US20050058658A1, “Compositions and methods for immunotherapy of human immunodeficiency virus (HIV)” (priority 2003, published 2005).
Where no end group is shown, it is not given here.

B1: KC: chemokine (protein, UniProt P12850 25-96, looked up)
Growth-regulated alpha protein: APIANELRCQCLQTMAGIHLKNIQSLKVLPSGPHCTQTEVIATLKNGREACLDPEAPLVQKIVQKMLKGVPK
B2: IL-18: interleukin (protein, UniProt P70380 36-192, looked up)
Interleukin-18: NFGRLHCTTAVIRNINDQVLFVDKRQPVFEDMTDIDQSASEPQTRLIIYMYKDSEVRGLAVTLSVKDSKMSTLSCKNKIISFEEMDPPENIDDIQSDLIFFQKRVPGHNKMEFESSLYEGHFLACQKEDDAFKLILKKKDENGDKSVMFTLTNLHQS
B3: IL-12: Interleukin 12 (protein, UniProt P43431 23-215; P43432 23-335, looked up)
Interleukin-12 subunit alpha: RVIPVSGPARCLSQSRNLLKTTDDMVKTAREKLKHYSCTAEDIDHEDITRDQTSTLKTCLPLELHKNESCLATRETSSTTRGSCLPPQKTSLMMTLCLGSIYEDLKMYQTEFQAINAALQNHNHQQIILDKGMLVAIDELMQSLNHNGETLRQKPPVGEADPYRVKMKLCILLHAFSTRVVTINRVMGYLSSA
Interleukin-12 subunit beta: MWELEKDVYVVEVDWTPDAPGETVNLTCDTPEEDDITWTSDQRHGVIGSGKTLTITVKEFLDAGQYTCHKGGETLSHSHLLLHKKENGIWSTEILKNFKNKTFLKCEAPNYSGRFTCSWLVQRNMDLKFNIKSSSSSPDSRAVTCGMASLSAEKVTLDQRDYEKYSVSCQEDVTCPTAEETLPIELALEARQQNKYENYSTSFFIRDIIKPDPPKNLQMKPLKNSQVEVSWEYPDSWSTPHSYFSLKFFVRIQRKKEKMKETEEGCNQKGAFLVEKTSTEVQCKGGNVCVQAQDRYYNSSCSKWACVPCRVRS
B4: IL-4: interleukin (protein, UniProt P07750 21-140, looked up)
Interleukin-4: HIHGCDKNHLREIIGILNEVTGEGTPCTEMDVPNVLTATKNTTESELVCRASKVLRIFYLKHGKTPCLKKNSSVLMELQRLFRAFRCLDSSISCTMNESKSTSLKDFLESLKSIMQMDYS
B5: MIP-1α: chemokine (protein, UniProt P10855 24-92, looked up)
C-C motif chemokine 3: APYGADTPTACCFSYSRKIPRQFIVDYFETSSLCSQPGVIFLTKRNRQICADSKETWVQEYITDLELNA
B6: IL-7: interleukin (protein, UniProt P10168 26-154, looked up)
Interleukin-7: ECHIKDKEGKAYESVLMISIDELDKMTGTDSNCPNNEPNFFRKHVCDDTKEAAFLNRAARKLKQFLKMNISEEFNVHLLTVSQGTQTLVNCTSKEEKNVKEQKKNDACFLKRLLREIKTCWNKILKGSI
B7: IL-11: interleukin (protein, UniProt P20809 22-199, looked up)
Interleukin-11: PGPPPGPPRVSPDPRAELDSTVLLTRSLLADTRQLAAQLRDKFPADGDHNLDSLPTLAMSAGALGALQLPGVLTRLRADLLSYLRHVQWLRRAGGSSLKTLEPELGTLQARLDRLLRRLQLLMSRLALPQPPPDPPAPPLAPPSSAWGGIRAAHAILGGLHLTLDWAVRGLLLLKTRL

Columns and labels:
Mouse sarcoma 180 cells = type: cell-based; settings: for NK-CMC Activity: wide range of concentrations, in the presence and absence of IL-2 (125 U/ml)
Description: In one embodiment, a NK cell assay is used to assess ARP-induced cytotoxic activity of NK-like cells. Briefly, by way of example but not limitation, a NK cell assay can be carried out as follows: large granular lymphocytes (LGLs) are co-cultured with tumor cells at various ratios (effector to target ratio) for four days at 37° C., 5% CO2. […] The culture is terminated at the end of day 4 and vitally stained using a MTT cell viability quantification assay (see Mossman, T. J. Immunol. Methods 1983, 65:55; and Sigma Chemical MTT (M5655) product application note). Culture media is aspirated and the remaining cells are washed and replaced with DMEM/F12 plus FCS, containing MTT. The cells are further incubated for 4-5 hours at 37° C. Absorbance is measured with the aid of a plate reader. Decreased absorbance indicated a decrease in the number of viable cells per well (i.e., cytotoxicity). Absorbance is measured again after the MTT is solubilized by replacement of the medium with 2-propanol containing HCl, which gives a uniform color throughout the well. NK-inducing activity is calculated relative to negative (PBS/BSA) and positive (internal standard) controls.
Spleens (10-15 per experiment) were aseptically removed from male Balb/C mice 6-10 weeks of age. Splenocytes were “squeezed” out of spleens using 2 sterile glass microscope slides. Cells were collected in approximately 10 ml of DMEM/F12 containing 10% fetal calf serum (FCS) and gentamicin (50 μg/ml). Single cell suspensions were generated by passing collected cells through a 70 μm nylon mesh screen. After washing the cell pellet once with PBS (centrifuged at 675×g for 5 min), red blood cells were lysed by brief hypotonic shock (i.e. exposure to sterile distilled, deionized water, followed immediately with appropriate volumes of 10×PBS to return to isotonicity). Remaining cells were centrifuged and resuspended in DMEM/F12+10% FCS and transferred to 75 cm^2 flasks each containing 25 mls DMEM/F12+10% FCS (cells from 5 spleens per flask). The cells were incubated for 60 min. at 37° C. to selectively remove readily adherent cells (mainly fibroblasts and macrophages). After the incubation, the flasks were gently shaken and the non-adherent cells were removed, pelleted by centrifugation, and resuspended in DMEM/F12 (no supplements) (1.0 mL/10^8 cells). A 1.0 mL volume of these cell suspensions were carefully layered onto a 70%/60%/40% (2 mL/4 mL/4 mL) Percoll™ gradients in 15 ml centrifuge tubes and centrifuged for 30 min at 675×G. The cells which sediment at the 40/60 interface represent primarily large granular lymphocytes (LGLs), enriched with NK cells. These cells were carefully removed with a pasteur pipet, centrifuged, washed once with PBS and resuspended in approximately 5 mL DMEM/F12 supplemented with gentamicin (50 μg/mL) and 10% fetal calf serum. Cell counts and appropriate dilutions of LGL cells were made with these cells, as described below. For convenience this LGL cell preparation is interchangeably referred to as NK cells.
Mouse sarcoma 180 cells were seeded into 96 well plates at a density of 5×10^3 cells per well in 100 μl DMEM/F12, supplemented with 10% FCS and gentamicin (50 μg/mL). […] NK cells were added in 100 μL of supplemented DMEM/F12 at designated densities: 0 NK cells/well; 5×10^4 NK cells/well (1:10 target/effector ratio); 1.25×10^5 NK cells/well (1:25 target/effector ratio); 2.5×10^5 NK cells/well (1:50 target/effector ratio); and, 5×10^5 NK cells/well (1:100 target/effector ratio). (Note: routinely, only the 1:50 and 1:100 ratios were used for screening purposes. IL2 was added as a media supplement with final concentration of 125 U/mL.). Co-cultures were incubated for 4 days at 37° C., 5% CO2, and terminated and vitally stained using a MTT cell viability quantification assay (see Mossman, T. J. Immunol. Methods 65:55 (1983); and Sigma Chemical MTT (M5655) product application note). […]

[1] = test system: freshly isolated dendritic cells (CD11c+ splenocytes); experiment: Dendritic cell (DC) assay: IL-12 release; type: cell-based, BALB/c mice; settings: for DC/mIL12 Release: tested for synergism and inhibition
From the text: In a preferred embodiment, dendritic cell (DC) assay is used to follow interleukin-12 (IL-12) release from freshly isolated dendritic cells as an index of DC activation (see section 13). […] Briefly, by way of example but not limitation, a DC assay can be carried out as follows: freshly isolated dendritic cells (CD11c^+ splenocytes, e.g., isolated from the spleens of BALB/c mice within ten hours of assaying the activity) are suspended at a density of 0.5×10^6 cells per mL in cytokine supplemented culture media (GM-CSF, 1.0 ng/ml; IL-4, 1.0 ng/ml; IFNg, 3 ng/ml; anti mouse CD40; 0.5 mg/ml). […] Mouse IL-12 release from the dendritic cells (CD11c^+ splenocytes) is then measured using ELISA.
DCs were isolated from the spleens of male BALB/c mice 8-12 weeks of age (Harlan Bioproducts for Science, Indianapolis, Ind.), using the magnetic assisted cell separation (MACS) system purchased from Miltenyi Biotech. In summary: Spleens were aseptically removed from mice and placed into a petri dish containing 5 mL holding media (DMEM/F12 supplemented with 10% FCS and antibiotics). Each spleen was then injected with ˜0.5 mls collagenase D solution (1 mg/mL in 10 mM Hepes-NaOH, pH 7.4, 150 mM NaCl, 5 mM MgCl2, 1.8 mM CaCl2), placed into 5-10 mL collagenase D, cut into 5-6 pieces and incubated at 37° C. for 45-60 min. Collagenase-digested spleens were then processed with glass slides and passed through a 70 μm nylon mesh cell strainer. After the strainer was flushed with 40 mL culture media, cells were centrifuged (8 min @ 200×G), suspended in 1 mL PBS and subjected to red blood cell lysis by incubating the cell suspension for 5 min at room temperature in 10 mL lysis buffer (155 mM NH4Cl, 10 mM KHCO3, 0.1 mM EDTA), followed by dilution in PBS to 50 mL and centrifugation (8 min @ 200×g). The splenocytes were then suspended in 10 mL MACS buffer (PBS pH 7.2, supplemented with 2 mM EDTA and 0.5% BSA), passed through a 40 μm nylon mesh cell strainer which was flushed with 40 mL MACS buffer. A preliminary cell count was taken at this time, prior to centrifugation (8 min @ 200×G). The splenocytes were suspended at a density of 10^8 cells per 400 μL MACS buffer. Paramagnetic MicroBeads coated with anti-CD11c antibody were mixed with the splenocyte suspension (100 μL per 10^8 cells), incubated at +4° C. for 15 min, washed, suspended in 1.0 mL MACS buffer and passed through a MS+separation column placed within a strong magnetic field. CD11c^+ cells were retained in the column whereas CD11c^− cells were washed off the column as the flow-through cell fraction. CD11c^+ cells were then collected by removing the column out of the magnetic field and flushing the column twice with 1 mL of MACS buffer. CD11c^+ cells were washed once with culture media and suspended at a density of 0.5×10^6 cells per mL in cytokine supplemented culture media {DMEM/F12 supplemented with 10% FCS and gentamicin containing mouse GM-CSF (1 ng/mL), mouse IL-4 (1 ng/mL), mouse IFNγ (3 ng/mL) and anti mouse CD40 (0.5 mg/mL)}.
Mouse IL12 release from CD11c^+ splenocytes was measured using ELISA. Briefly, CD11c+ cell culture supernatants were sampled following an overnight incubation (usually 15-18 hrs). Media samples (100 μL) were added to ELISA plates coated with anti mouse IL12 (p70) capture antibody (R&D #MAB419; 250 ng in 100 μL per well) and incubated either at 37° C. or room temperature for 2 hrs. The ELISA plates were washed extensively with wash buffer after which 100 μL per well of detection antibody/detection reagent (biotinylated anti-mouse IL12; R&D #BAF419 at 50 ng/mL and streptavidin-HRP) was added. The ELISA plates were again incubated for 2 hours, washed and exposed to […] substrate solution (Pierce #34021) for 20 min. The substrate reaction was stopped by adding 100 μL/well 2M H2SO4. ELISA plates were read at 450 nm (corrected at 540 nm) and mIL12(p70) levels were calculated using an intra-ELISA standard curve (range: 2000-31.25 pg/mL).

Row | Molecule | NK-CMC Activity (Mouse sarcoma 180 cells) | other results
1 | Cecropin B: defensin / anti-microbial peptide (KWKVFKKIEKMGRNIRNGIVKAGPAIAVLGEAKAL; ends and bridges not checked; UniProt P01508 27-61, looked up) | − | 
2 | TGFβ | − | DC/mIL12 Release [1]: −
3 | IFNα | − | 
4 | IL-15: interleukin | − | 
5 | IL-6: interleukin | − | DC/mIL12 Release [1]: −
6 | IL-5: interleukin | − | DC/mIL12 Release [1]: −
7 | FGFbasic: growth factor | − | DC/mIL12 Release [1]: −
8 | [Ca+2].[Cl-].[Cl-] [CaCl2] |  | Inhibition of DC-activity induced by crude ARP preparations [1]: did not
9 | TNFα |  | DC/mIL12 Release [1]: −; Enhancement of NK-CMC compared to BEX (Mouse sarcoma 180 cells; same conditions as BEX): relatively weak enhancers
10 | [Cl-].[Cl-].[Zn+2] [ZnCl2] |  | Inhibition of DC-activity induced by crude ARP preparations [1]: inhibition of activity in mM-μM concentration range
11 | Magainin I | − | 
12 | TGFα: growth factor | − | 
13 | Cecropin P1 | − | 
14 | JE/MCP-1: chemokine | − | 
15 | Cecropin A: defensin / anti-microbial peptide (KWKLFKKIEKVGQNIRDGIIKAGPAVAVVGQATQIAK; UniProt P01507 27-63, looked up) | − | 
16 | [Cl-].[Cl-].[Mg+2] [MgCl2] |  | Inhibition of DC-activity induced by crude ARP preparations [1]: did not
17 | Magainin II | − | 
18 | [Cl][Cu][Cl] [CuCl2] |  | Inhibition of DC-activity induced by crude ARP preparations [1]: inhibition of activity in mM-μM concentration range
19 | B1 | − | 
20 | B2 |  | DC/mIL12 Release [1]: −
21 | B3 |  | Effect on NK-CMC (footnotes of Table 16) (Mouse sarcoma 180 cells): synergistically increases NK-CMC at low concentrations of IL-2
22 | B4 | − | 
23 | B5 | − | 
24 | B6 | − | 
25 | B7 | − | 
